Experimental data taken from patent US11752161B2, “Pharmaceutical compositions, method of making and method of using thereof” (Gannex Pharma Co., Ltd., priority 2020, dated 2023).

Experiment: Solubility of the compound of Formula (I) in aqueous media without surfactant
Type: physicochemical
Conditions: aqueous buffer; hydrochloric acid solution, buffer, and water without surfactant, 37° C., pH 1.0˜9.0
Method: The very low solubility limits its use in the development as a drug candidate. Chinese patent application 202010105909.9 reports a semi-solid capsule technology that can substantially increase the dissolution of the compound shown in Formula (I), but the capsule needs to be stored in a cool place below room temperature, not exceeding 15° C., specifically in a closed container at 2 to 8° C.

solubility: < 0.5 ng/mL
Structure (SMILES): Cc1cc(OC[P@@]2(=O)OCC[C@@H](c3cccc(Cl)c3)O2)cc(C)c1Cc1ccc(O)c(C(C)C)c1 [Formula (I) compound]
